In the NIST ThermoML archive (doi:10.1021/acs.jced.9b00249):
Numbers after ± are expanded uncertainties.

Legend:
[1] = Liquid; for vapor or sublimation pressure: Diaphragm manometer; for mass density: isochoric method
[2] = xn = mol fraction of the nth substance listed; details: isochoric method

## CCOCC [diethyl ether]
[1]; 424.3 K
  vapor or sublimation pressure: 1790 ± 820 kPa
[1]; 434.3 K
  vapor or sublimation pressure: 2150 ± 820 kPa
[1]; 438.9 K
  vapor or sublimation pressure: 2390 ± 820 kPa
[1]; 442.3 K, 3250 kPa
  mass density: 473 ± 24 kg/m3
[1]; 445.3 K, 3750 kPa
  mass density: 473 ± 24 kg/m3
[1]; 447.8 K, 4200 kPa
  mass density: 473 ± 24 kg/m3
[1]; 450.2 K, 4750 kPa
  mass density: 473 ± 24 kg/m3
[1]; 453.9 K, 5680 kPa
  mass density: 473 ± 24 kg/m3
[1]; 459.4 K, 6890 kPa
  mass density: 473 ± 24 kg/m3

## CCOCC [diethyl ether] + CCC
[2]; 351.8 K, 2080 kPa, Liquid, x2 = 0.748
  mass density: 474 ± 27 kg/m3
[2]; 359.2 K, 4110 kPa, Fluid (supercritical or subcritical phases), x2 = 0.748
  mass density: 474 ± 24 kg/m3
[2]; 362.8 K, 2080 kPa, Liquid, x2 = 0.651
  mass density: 474 kg/m3
[2]; 369.5 K, 7470 kPa, Fluid (supercritical or subcritical phases), x2 = 0.748
  mass density: 474 ± 24 kg/m3
[2]; 370.3 K, 3910 kPa, Fluid (supercritical or subcritical phases), x2 = 0.651
  mass density: 474 ± 24 kg/m3
[2]; 372 K, 3100 kPa, Liquid, x2 = 0.743
  mass density: 401 ± 28 kg/m3
[2]; 379.4 K, 6660 kPa, Fluid (supercritical or subcritical phases), x2 = 0.651
  mass density: 474 ± 24 kg/m3
[2]; 379.4 K, 10830 kPa, Fluid (supercritical or subcritical phases), x2 = 0.748
  mass density: 474 ± 24 kg/m3
[2]; 382.7 K, 4110 kPa, Fluid (supercritical or subcritical phases), x2 = 0.743
  mass density: 401 ± 24 kg/m3
[2]; 387.9 K, 9300 kPa, Fluid (supercritical or subcritical phases), x2 = 0.651
  mass density: 474 ± 24 kg/m3
[2]; 390.1 K, 5340 kPa, Fluid (supercritical or subcritical phases), x2 = 0.743
  mass density: 401 ± 24 kg/m3
[2]; 391.1 K, 14590 kPa, Fluid (supercritical or subcritical phases), x2 = 0.748
  mass density: 474 ± 24 kg/m3
[2]; 394.9 K, 4010 kPa, Liquid, x2 = 0.655
  mass density: 401 ± 35 kg/m3
[2]; 397.1 K, 12250 kPa, Fluid (supercritical or subcritical phases), x2 = 0.651
  mass density: 474 ± 24 kg/m3
[2]; 399.9 K, 4420 kPa, Liquid, x2 = 0.742
  mass density: 311 ± 46 kg/m3
[2]; 401.1 K, 7670 kPa, Fluid (supercritical or subcritical phases), x2 = 0.743
  mass density: 401 ± 24 kg/m3
[2]; 401.1 K, 17840 kPa, Fluid (supercritical or subcritical phases), x2 = 0.748
  mass density: 474 ± 24 kg/m3
[2]; 401.9 K, 5030 kPa, Fluid (supercritical or subcritical phases), x2 = 0.655
  mass density: 401 ± 24 kg/m3
[2]; 405.6 K, 5640 kPa, Fluid (supercritical or subcritical phases), x2 = 0.655
  mass density: 401 ± 24 kg/m3
[2]; 407.5 K, 5130 kPa, Fluid (supercritical or subcritical phases), x2 = 0.742
  mass density: 311 ± 22 kg/m3
[2]; 407.7 K, 15710 kPa, Fluid (supercritical or subcritical phases), x2 = 0.651
  mass density: 474 ± 24 kg/m3
[2]; 409.2 K, 4620 kPa, Liquid, x2 = 0.651
  mass density: 311 ± 39 kg/m3
[2]; 410.7 K, 9710 kPa, Fluid (supercritical or subcritical phases), x2 = 0.743
  mass density: 401 ± 24 kg/m3
[2]; 411.4 K, 21600 kPa, Fluid (supercritical or subcritical phases), x2 = 0.748
  mass density: 474 ± 24 kg/m3
[2]; 412 K, 6760 kPa, Fluid (supercritical or subcritical phases), x2 = 0.655
  mass density: 401 ± 24 kg/m3
[2]; 417.7 K, 6250 kPa, Fluid (supercritical or subcritical phases), x2 = 0.742
  mass density: 311 ± 22 kg/m3
[2]; 418.5 K, 5130 kPa, Fluid (supercritical or subcritical phases), x2 = 0.651
  mass density: 311 ± 22 kg/m3
[2]; 419.2 K, 19360 kPa, Fluid (supercritical or subcritical phases), x2 = 0.651
  mass density: 474 ± 24 kg/m3
[2]; 419.7 K, 11640 kPa, Fluid (supercritical or subcritical phases), x2 = 0.743
  mass density: 401 ± 24 kg/m3
[2]; 422.6 K, 8790 kPa, Fluid (supercritical or subcritical phases), x2 = 0.655
  mass density: 401 ± 24 kg/m3
[2]; 429.1 K, 6250 kPa, Fluid (supercritical or subcritical phases), x2 = 0.651
  mass density: 311 ± 22 kg/m3
[2]; 429.1 K, 7570 kPa, Fluid (supercritical or subcritical phases), x2 = 0.742
  mass density: 311 ± 22 kg/m3
[2]; 429.6 K, 10210 kPa, Fluid (supercritical or subcritical phases), x2 = 0.655
  mass density: 401 ± 24 kg/m3
[2]; 430.4 K, 13770 kPa, Fluid (supercritical or subcritical phases), x2 = 0.743
  mass density: 401 ± 24 kg/m3
[2]; 437.5 K, 11740 kPa, Fluid (supercritical or subcritical phases), x2 = 0.655
  mass density: 401 ± 24 kg/m3
[2]; 437.5 K, 15300 kPa, Fluid (supercritical or subcritical phases), x2 = 0.743
  mass density: 401 ± 24 kg/m3
[2]; 437.8 K, 8590 kPa, Fluid (supercritical or subcritical phases), x2 = 0.742
  mass density: 311 ± 22 kg/m3
[2]; 438.5 K, 7270 kPa, Fluid (supercritical or subcritical phases), x2 = 0.651
  mass density: 311 ± 22 kg/m3
[2]; 447.3 K, 9710 kPa, Fluid (supercritical or subcritical phases), x2 = 0.742
  mass density: 311 ± 22 kg/m3
[2]; 447.6 K, 13670 kPa, Fluid (supercritical or subcritical phases), x2 = 0.655
  mass density: 401 ± 24 kg/m3
[2]; 449 K, 8390 kPa, Fluid (supercritical or subcritical phases), x2 = 0.651
  mass density: 311 ± 22 kg/m3
[2]; 452.4 K, 18650 kPa, Fluid (supercritical or subcritical phases), x2 = 0.743
  mass density: 401 ± 24 kg/m3
[2]; 455 K, 15200 kPa, Fluid (supercritical or subcritical phases), x2 = 0.655
  mass density: 401 ± 24 kg/m3
[2]; 458.5 K, 9500 kPa, Fluid (supercritical or subcritical phases), x2 = 0.651
  mass density: 311 ± 22 kg/m3
[2]; 459 K, 11220 kPa, Fluid (supercritical or subcritical phases), x2 = 0.742
  mass density: 311 ± 22 kg/m3
[2]; 466.1 K, 12150 kPa, Fluid (supercritical or subcritical phases), x2 = 0.742
  mass density: 311 ± 22 kg/m3
[2]; 467.4 K, 10620 kPa, Fluid (supercritical or subcritical phases), x2 = 0.651
  mass density: 311 ± 22 kg/m3
[2]; 470 K, 10930 kPa, Fluid (supercritical or subcritical phases), x2 = 0.651
  mass density: 311 ± 22 kg/m3
